Assay [1] has as its target T1, ACC2 from rat skeletal muscle (Rattus norvegicus, UniProt Q1HEC0).
T1 construct: The livers (for ACC1 preparation) or skeletal muscle tissue (for ACC2 preparation) are removed; from tissue; host or cells: skeletal muscle of male CD rats (fasted, then fed a high sucrose diet)
Description: Direct inhibition of ACC2 activity (14C-bicarbonate incorporation). In kind it is biochemical. Conditions: ACC2 from rat skeletal muscle. On the procedure: For example direct inhibition of ACC1 and ACC2 activity, for compounds of Formula (1) were determined using preparations of ACC1 from rat liver and ACC2 from rat skeletal muscle.
[1] Preparation of ACC1 and ACC2. ACC1 was obtained from rat liver and ACC2 was obtained from rat skeletal muscle based upon standard procedures such as those described by Thampy and Wakil (J. Biol. Chem. 260: 6318-6323; 1985) using the following method.
Male CD rats weighing 150-200 g are fasted for 2 days and then fed a high sucrose diet (AIN-76A rodent diet; Cat # D10001, Research Diets Inc., New Brunswick, N.J.), for 3 days at which time they are sacrificed by CO2 asphyxiation. The livers (for ACC1 preparation) or skeletal muscle tissue (for ACC2 preparation) are removed, rinsed in ice-cold phosphate-buffered saline (PBS), and homogenized in 5 volumes of homogenization buffer (50 mM potassium phosphate, pH 7.5, 10 mM EDTA, 10 mM 2-mercaptoethanol, 2 mM benzamidine, 0.2 mM phenylmethylsulfonylfluoride (PMSF), 5 mg/L each leupeptin, aprotinin, and antitrypsin) in a Waring® blender for 1 minute at 4° C. All subsequent operations are carried out at 4° C. The homogenate is made 3% with respect to polyethylene glycol (PEG) by the addition of 50% PEG solution and centrifuged at 20,000×g for 15 minutes. The resulting supernatant is adjusted to 5% PEG with the addition of 50% PEG solution and stirred for 5 minutes. The pellet (contains ACC activity) is collected by centrifugation at 20,000×g for 20 minutes, rinsed with Ice-cold doubly distilled water to remove excess PEG and re-suspended in one-fourth the original homogenate volume with homogenization buffer. Ammonium sulfate (200 g/liter) is slowly added with stirring. After 45 minutes the enzyme is collected by centrifugation for 30 minutes at 20,000×g, re-suspended in 10 ml of 50 mM HEPES, pH7.5, 0.1 mM DTT, 1.0 mM EDTA, and 10% glycerol and desalted on a Sephadex™ G-25 column (2.5 cm-x 50 cm) (Pharmacia, Piscataway N.J. now GE Healthcare) […] equilibrated with the same buffer. The desalted enzyme preparation is stored in aliquots at −70° C. Immediately prior to use, frozen ACC1 or ACC2 aliquots are thawed, diluted to 500 μg/ml in buffer containing 50 mM HEPES, pH7.5, 1.0 mM MgCl2, 10 mM tripotassium citrate, 2.0 mM dithiothreitol (DTT), and 0.75 mg/ml fatty acid-free bovine serum albumin (BSA) and pre-incubated at 37° C. for 30 minutes.
[2] Measurement of ACC inhibition. The procedures for measuring ACC1 inhibition and ACC2 inhibition are identical except for the source of the isozyme. For measurement of ACC activity and assessment of ACC inhibition, test compounds are dissolved in dimethylsulfoxide (DMSO) and 1 μL aliquots are placed in 0.5 ml polypropylene tubes. Control tubes contain 1 μL of DMSO alone. Tubes are incubated at 37° C. in a constant temperature water bath. […] The reaction is then initiated by the addition of 10 μL of preincubated ACC fraction prepared as described above. After 7 minutes the reaction is terminated by the addition of 50 μL of 6N HCl and a 150 μL aliquot of the reaction mixture is transferred to glass scintillation vials and evaporated to dryness at 90° C. for at least 1 hour. The dried vials are then cooled, 0.5 ml of water and 5.5 ml of Ready Safe liquid scintillation fluid (Beckman Coulter Inc., Fullerton, Calif.) are added, and the radioactivity is determined using a liquid scintillation counter. Tubes that received HCl before ACC served as blanks.
[3] Specificity for ACC1 vs ACC2 inhibition. The specificity of a compound for Inhibiting ACC1 vs ACC2 can be determined by comparing the concentration of test compound required to inhibit 50% of the activity contained in an aliquot of ACC1 as compared with the concentration of the same compound required to inhibit 50% of the activity of an aliquot of ACC2.

The test system of assay [2] is hepatic fatty acid synthesis. Put plainly: Measurement of fatty acid synthesis inhibition in experimental animals ([2-14C]acetate into saponifiable lipids in liver). The format is in vivo, Sprague Dawley rats. The conditions noted are these: Rattus norvegicus, po; read-out: Percent Inhibition at 30 mg/kg. An excerpt:
The ACC inhibitory activity of compounds of this invention, and the salts of such compounds, can be confirmed in vivo by evaluation of their ability to inhibit hepatic fatty acid production and to stimulate whole body fatty acid oxidation using methods based on standard procedures. For example, since ACC catalyzes the first committed step in the biosynthesis of fatty acids, the in vivo activity of these compounds can be confirmed by measuring the ability of the compounds of this invention, and the salts of such compounds, to prevent the formation of radio labeled fatty acids from radio labeled acetate in the livers of treated mammals.
[1] Measurement of fatty acid synthesis inhibition in experimental animals. Incorporation of [2-^14C]acetate into saponifyable lipids in the livers of mammals (e.g. CDI mice, C57BI/6J-ob/ob mice, Sprague Dawley rats (available from Charles River Boston, Mass. or Jackson Labs Bar Harbor, Me.)) can be measured essentially as previously described for assessment of hepatic sterol synthesis (Harwood et al, Biochem. Pharmacol, 40: 1281-1293, 1990; Harwood et al. Biochem. Pharmacol. 53: 839-864, 1997) with the following modifications to allow for assessment fatty acid synthesis. For example, Sprague Dawley rats are administered a 0.1 ml per 40 g body weight of an oral bolus of vehicle (e.g. water or 0.5% methylcellulose in water)±test compound. One to four hours after compound administration, animals receive an intraperitoneal injection of 0.5 ml of [2-^14C]acetate (64 μCi/ml; 57 mCi/mmol). One hour after radiolabel administration, animals are sacrificed by CO2 asphyxiation and two, 0.75 g liver pieces are removed and saponified at […]. for 120 minutes in 1.5 ml of 2.5 M NaOH. After saponification, 2.5 ml of absolute EtOH are added to each sample and the solutions are mixed and allowed to stand overnight. Petroleum ether, 4.8 ml, is then added to each sample and the mixtures are first shaken vigorously for 2 minutes then centrifuged at 1000×g in a bench-top Sorvall®9 for 5 minutes. The resultant petroleum ether layers, which contain the nonsaponifyable lipids (e.g. cholesterol, post-squalene cholesterol precursors and other non-saponifiable lipids), are removed and discarded. The remaining aqueous layer (containing fatty acid sodium salts) is acidified to pH<2 by addition of 0.6 ml of 12 M HCl and extracted two times with 4.8 ml of petroleum ether. The pooled organic fractions (containing protonated fatty acids) are transferred to liquid scintillation vials, dried under nitrogen, dissolved in 7 ml of Aqua sol liquid scintillation fluid, and assessed for radioactivity using a liquid scintillation counter. Inhibition of fatty acid synthesis by the test compound is expressed as the concentration required to reduce by 50% the dpm [2-^14C]acetate incorporated into saponifiable lipids during the 1 hour interval between radio labeled acetate injection and CO2 asphyxiation.
Some compounds of the present were evaluated for inhibition of fatty acid synthesis as described above. As shown below, these compounds were all observed to inhibit the synthesis of fatty acids in vivo.

A further assay deals with T2, ACC1 from rat liver (Rattus norvegicus, UniProt P11497).
T2 construct: The livers (for ACC1 preparation) or skeletal muscle tissue (for ACC2 preparation) are removed; from tissue; host or cells: liver of male CD rats (fasted, then fed a high sucrose diet)
Put plainly: Direct inhibition of ACC1 activity (14C-bicarbonate incorporation). The format is biochemical. Conditions: ACC1 from rat liver. In a few lines: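 ACC1 partially purified from livers of fasted/sucrose-refed male rats by PEG and ammonium sulfate fractionation, then preincubated 30 min at 37°C with 10 mM citrate and 1.0 mM MgCl2. Reaction ran 7 min at 37°C, stopped with HCl; acid-stable radioactivity counted by scintillation; HCl-first tubes served as blanks.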

pIC50: −log10 of the molar value.

T1 sequence (Q1HEC0 17-2455): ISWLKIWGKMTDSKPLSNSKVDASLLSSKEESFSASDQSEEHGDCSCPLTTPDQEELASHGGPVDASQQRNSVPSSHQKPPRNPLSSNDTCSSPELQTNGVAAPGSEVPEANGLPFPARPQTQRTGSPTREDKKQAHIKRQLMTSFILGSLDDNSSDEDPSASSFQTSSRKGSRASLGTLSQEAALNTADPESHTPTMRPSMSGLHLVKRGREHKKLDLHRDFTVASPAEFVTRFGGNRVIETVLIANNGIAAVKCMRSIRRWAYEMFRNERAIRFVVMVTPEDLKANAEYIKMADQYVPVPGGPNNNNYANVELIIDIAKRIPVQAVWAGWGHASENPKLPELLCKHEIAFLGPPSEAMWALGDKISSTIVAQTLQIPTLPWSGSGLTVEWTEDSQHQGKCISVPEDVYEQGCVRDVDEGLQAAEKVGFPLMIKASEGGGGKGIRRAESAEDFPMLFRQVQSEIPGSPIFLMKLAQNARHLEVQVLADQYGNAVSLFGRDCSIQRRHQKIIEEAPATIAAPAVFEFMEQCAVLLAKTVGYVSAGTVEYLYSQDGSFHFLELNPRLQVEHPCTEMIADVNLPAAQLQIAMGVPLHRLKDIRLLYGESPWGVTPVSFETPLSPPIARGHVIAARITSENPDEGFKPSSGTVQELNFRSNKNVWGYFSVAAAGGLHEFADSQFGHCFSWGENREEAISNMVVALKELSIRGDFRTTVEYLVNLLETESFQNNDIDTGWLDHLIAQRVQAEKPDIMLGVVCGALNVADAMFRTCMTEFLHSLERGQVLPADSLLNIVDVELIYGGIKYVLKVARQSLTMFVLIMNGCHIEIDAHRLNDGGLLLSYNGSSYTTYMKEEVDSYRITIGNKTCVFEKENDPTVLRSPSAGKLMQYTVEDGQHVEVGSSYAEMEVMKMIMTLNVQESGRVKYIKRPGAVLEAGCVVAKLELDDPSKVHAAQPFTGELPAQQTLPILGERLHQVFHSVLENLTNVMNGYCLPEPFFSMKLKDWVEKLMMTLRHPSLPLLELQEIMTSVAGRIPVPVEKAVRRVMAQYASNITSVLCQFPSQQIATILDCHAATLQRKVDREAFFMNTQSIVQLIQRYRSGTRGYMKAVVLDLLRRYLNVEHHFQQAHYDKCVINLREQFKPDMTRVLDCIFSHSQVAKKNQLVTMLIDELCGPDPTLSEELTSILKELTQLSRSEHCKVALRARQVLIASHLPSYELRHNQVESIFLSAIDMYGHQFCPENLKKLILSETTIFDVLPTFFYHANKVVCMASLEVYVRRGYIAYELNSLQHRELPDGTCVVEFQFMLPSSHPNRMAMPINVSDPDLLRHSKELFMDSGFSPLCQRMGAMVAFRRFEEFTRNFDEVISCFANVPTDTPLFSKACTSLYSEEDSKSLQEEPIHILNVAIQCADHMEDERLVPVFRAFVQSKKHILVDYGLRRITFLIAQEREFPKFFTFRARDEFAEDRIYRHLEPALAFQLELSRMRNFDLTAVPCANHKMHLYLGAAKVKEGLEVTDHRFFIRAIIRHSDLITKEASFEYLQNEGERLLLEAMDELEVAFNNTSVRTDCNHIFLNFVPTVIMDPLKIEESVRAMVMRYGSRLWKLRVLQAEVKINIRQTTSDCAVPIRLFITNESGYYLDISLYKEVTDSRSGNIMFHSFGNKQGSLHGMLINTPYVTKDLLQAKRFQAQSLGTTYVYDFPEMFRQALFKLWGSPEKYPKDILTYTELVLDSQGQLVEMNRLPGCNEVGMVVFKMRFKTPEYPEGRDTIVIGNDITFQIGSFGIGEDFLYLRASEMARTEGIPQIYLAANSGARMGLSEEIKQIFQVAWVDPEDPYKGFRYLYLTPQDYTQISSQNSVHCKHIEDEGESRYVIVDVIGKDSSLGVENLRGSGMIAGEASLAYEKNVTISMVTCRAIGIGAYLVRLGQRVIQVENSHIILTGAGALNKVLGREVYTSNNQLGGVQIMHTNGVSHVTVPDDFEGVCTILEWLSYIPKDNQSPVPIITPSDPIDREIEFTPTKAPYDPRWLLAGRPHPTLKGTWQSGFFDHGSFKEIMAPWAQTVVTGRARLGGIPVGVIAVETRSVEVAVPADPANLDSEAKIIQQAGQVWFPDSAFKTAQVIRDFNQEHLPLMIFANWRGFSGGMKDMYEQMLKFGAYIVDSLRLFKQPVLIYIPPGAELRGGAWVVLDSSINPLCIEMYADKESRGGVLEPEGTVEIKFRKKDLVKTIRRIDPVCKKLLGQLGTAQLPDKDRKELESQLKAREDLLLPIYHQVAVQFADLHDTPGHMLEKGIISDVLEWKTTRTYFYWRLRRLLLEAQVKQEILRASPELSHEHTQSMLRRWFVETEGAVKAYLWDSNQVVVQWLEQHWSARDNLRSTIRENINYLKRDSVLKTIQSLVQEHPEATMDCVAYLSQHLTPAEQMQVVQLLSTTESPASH

With `Cc1cc2c(cc1C)C(=O)CC1(CCN(C(=O)c3cc(C)c4[nH]ncc4c3)CC1)O2` [Ex. A1, 6,7-dimethyl-1′-[(7-methyl-1H-indazol-5-yl)carbonyl]spiro-[chromene-2,4′-piperidin]-4(3H)-one], the pIC50 in assay [1] was 7.44; against ACC1 from rat liver, 7.63. Also, the inhibition at 30 mg/kg in assay [2] worked out at 35.4%.

In the case of `Cc1cc2c(cc1Cl)C(=O)CC1(CCN(C(=O)c3ccc4[nH]ncc4c3)CC1)O2` [Ex. E2, 6-chloro-1′-(1H-indazol-5-ylcarbonyl)-7-methylspiro[chromene-2,4′-piperidin]-4(3H)-one], in assay [2], the inhibition at 30 mg/kg was found to be 30.7%. Moreover, the pIC50 against ACC1 from rat liver was 6.97.

With `Cc1cc(C(=O)N2CCC3(CC2)CC(=O)c2cc(OC(F)(F)F)ccc2O3)cc2cn[nH]c12` [Ex. A12, 1′-[(7-methyl-1H-indazol-5-yl)carbonyl]-6-(trifluoromethoxy)spiro[chromene-2,4-piperidin]-4(3H)-one], in assay [2], the inhibition at 30 mg/kg came out at 38.7%. For the same compound, at ACC1 from rat liver, the pIC50 was 7.38.

As for `Cc1cc2c(cc1C)C(=O)CC1(CCN(C(=O)c3ccc4[nH]ncc4c3)CC1)O2` [Ex. E1, 1′-(1H-indazol-5-ylcarbonyl)-6,7-dimethylspiro[chromene-2,4′-piperidin]-4(3H)-one], in assay [2], the inhibition at 30 mg/kg was 30.9%. This compound also showed a pIC50 against ACC1 from rat liver of 7.02.

As to `COc1ccc2c(c1F)C(=O)CC1(CCN(C(=O)c3cc(C)c4[nH]ncc4c3)CC1)O2` [Ex. A9, 5-fluoro-6-methoxy-1′-[(7-methyl-1H-indazol-5-yl)carbonyl]spiro[chromene-2,4′-piperidin]-4(3H)-one], the inhibition at 30 mg/kg in assay [2] was found to be 33.5%. The compound also gave a pIC50 against ACC1 from rat liver of 7.43.

Source of the values: patent US20090270435A1 (priority 2006, published 2009).
